Like-named read-outs stand apart in the source and are kept apart here.
Experiments:
[1] = test system: Aβ42 release in H4-15× cells; test: Inhibition of Aβ42 release in the supernatant of H4-15× cells; assay type: cell-based, human; settings: for inhibition at 100 µM: Homo sapiens, H415, overnight (14-16 hours) incubation; for % inhibition of Aβ42 release: 100 μM, overnight (14-16 hours) incubation
Protocol: H4-15× cells (human neuroglioma cells transfected with the human gene encoding for the precursor of β-amyloid protein APP695) were cultured in flasks (in incubator at 37° C., under aqueous vapour saturated atmosphere with 5% carbon dioxide), in the presence of hygromycin and blasticidin, which maintain the selective pressure for the cells continuously expressing the gene of interest.
When the cells reached about 90% confluency, they were collected and re-seeded in 24 wells plates (2×10^5 cells each), in 0.5 ml of complete culture medium. After approx. 24 hours, when the cells had adhered to the well surface and reached confluency, the medium of each well was replaced with 0.5 ml of fresh culture medium, supplemented with a compound (I) to 100 micromolar final concentration. Each tested concentration was repeated in triplicate. The molecules used for the treatment were previously dissolved in dimethylsulfoxide (DMSO) or in a dimethylsulfoxide/water mixture, the final concentration of DMSO in the wells not exceeding 1%. Thus the prepared plates were incubated again overnight (14-16 hours); afterwards the cell supernatant was taken from each well and Aβ42 and Aβ40 proteins were quantitated. The assay was carried out with an instrumentation for microplates chemoluminescence analysis, which allows to separately quantify the two proteins and is based on the immobilization of an analyte-antibody complex on paramagnetic microbeads. One of the antibodies of this complex is marked with a ruthenium compound which, upon electrochemical excitement, gives a light signal, having intensity proportional to the amount of analyte present.

cyclooxygenase-1 (COX-1) = target: T1, cyclooxygenase-1 (COX-1) (Rattus norvegicus, UniProt Q63921); test: Inhibition of cyclooxygenase-1 (COX-1) in rat whole blood (TxB2 production); assay type: cell-based; settings: for inhibition at 100 µM: read-out: % COX-1 inhibitory activity
T1 construct: Aliquots of heparinized blood (500 μl) were preincubated with 100 μM concentration of the tested compounds; from tissue; host or cells: rat whole blood (heparinized, from the abdominal aorta)
T1 sequence (Q63921 27-602): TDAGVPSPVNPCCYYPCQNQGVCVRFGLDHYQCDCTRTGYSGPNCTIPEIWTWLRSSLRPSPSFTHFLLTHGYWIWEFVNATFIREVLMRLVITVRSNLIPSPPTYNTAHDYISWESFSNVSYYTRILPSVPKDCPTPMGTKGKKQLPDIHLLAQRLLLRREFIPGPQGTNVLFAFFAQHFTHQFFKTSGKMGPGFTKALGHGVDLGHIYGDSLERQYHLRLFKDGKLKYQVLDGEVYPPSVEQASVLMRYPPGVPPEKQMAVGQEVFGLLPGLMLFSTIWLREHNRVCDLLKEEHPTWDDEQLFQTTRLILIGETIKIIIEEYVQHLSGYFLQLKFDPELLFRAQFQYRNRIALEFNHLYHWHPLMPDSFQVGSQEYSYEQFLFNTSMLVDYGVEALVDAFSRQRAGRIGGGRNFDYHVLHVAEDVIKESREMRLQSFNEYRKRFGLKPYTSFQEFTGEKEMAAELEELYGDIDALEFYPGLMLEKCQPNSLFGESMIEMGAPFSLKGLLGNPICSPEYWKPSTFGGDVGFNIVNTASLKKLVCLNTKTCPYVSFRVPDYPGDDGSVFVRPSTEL
Protocol: Whole blood was taken from the rat abdominal aorta and immediately placed in heparinized tubes. Aliquots of heparinized blood (500 μl) were preincubated with 100 μM concentration of the tested compounds or with the only carrier (DMSO) for 1 h at 37° C. Eicosanoid production was induced by addition of calcium ionophore A23187 (final concentration 5×10^−5 M) and was interrupted after 30 minute incubation by quickly placing the samples in dry ice. Thereafter, samples were centrifuged (12000 g×3 minutes a 4° C.) and the production of TxB2 thromboxane B2 was calculated by radioimmunoassay.

[2] = 100 μM, rat whole blood, calcium ionophore A23187-induced TxB2 production

SMILES | inhibition at 100 µM (cyclooxygenase-1 (COX-1); [2]) [%] | % COX-1 inhibitory activity (cyclooxygenase-1 (COX-1); [2]) [%] | inhibition at 100 µM [1] [%] | inhibition at 100 µM (cyclooxygenase-1 (COX-1)) [%] | % inhibition of Aβ42 release [1] [%]
O=C(O)C1(c2ccc(-c3ccc(OC(F)(F)F)cc3)c(F)c2)CC1 [CHF 5046, 1-(2-fluoro-4′-trifluoromethoxybiphenyl-4-yl)cyclopropanecarboxylic acid] | 2.6 |  | 70.4 |  | 
CC(C)(C(=O)O)c1ccc(-c2ccc(C(F)(F)F)cc2)c(F)c1 [CHF 4810, 2-methyl-2(2-fluoro-4′-trifluoromethylbiphen-4-yl)propionic acid] |  |  | 58 |  | 
CC(C(=O)O)c1ccc(-c2ccccc2)c(F)c1 (centres unmarked) [Flurbiprofen, reference compound] |  |  | ~25 | 100 | 
CC(C)(C(=O)O)c1ccc(-c2ccc(C3CCCCC3)cc2)c(F)c1 [CHF 4961, 2-methyl-2(2-fluoro-4′cyclohexylbiphen-4-yl)propionic acid] | 5.2 |  | 76.6 |  | 
O=C(O)C1(c2ccc(-c3ccc(C(F)(F)F)cc3)c(F)c2)CC1 [CHF 5022, 1-(2-fluoro-4′-trifluoromethylbiphenyl-4-yl)cyclopropanecarboxylic acid] | 0 |  | 55.4 |  | 
O=C(O)C1CC1c1ccc(-c2ccc(-c3ccc(O)cc3)cc2)c(F)c1 (centres unmarked) [CHF 5083, 2-(2″-fluoro-4-hydroxy-[1,1′:4′,1″]tert-phenyl-4″-yl)-cyclopropanecarboxylic acid] |  |  |  |  | 81.1
O=C(O)C1(c2ccc(-c3cccc(C(F)(F)F)c3)c(F)c2)CC1 [CHF 5058, 1-(2-fluoro-3′-trifluoromethylbiphenyl-4-yl)cyclopropanecarboxylic acid] | 0 |  | 54.8 |  | 
O=C(O)C1(c2ccc(-c3cccc(OC(F)(F)F)c3)c(F)c2)CC1 [CHF 5045, 1-(2-fluoro-3′-trifluoromethoxybiphenyl-4-yl)cyclopropanecarboxylic acid] | 8.3 |  | 56.4 |  | 
C#CCOc1ccc(-c2ccc(C3(C(=O)O)CC3)cc2F)cc1 [CHF 5078, 1-(2-fluoro-4′-prop-2-inyloxy-biphenyl-4-yl)-cyclopropanecarboxylic acid] |  | 3.6 |  |  | 57.5

Now from value to molecule, other results behind:

inhibition at 100 µM (cyclooxygenase-1 (COX-1); [2]) [%] | % COX-1 inhibitory activity (cyclooxygenase-1 (COX-1); [2]) [%] | SMILES | inhibition at 100 µM [1] [%] | inhibition at 100 µM (cyclooxygenase-1 (COX-1)) [%] | % inhibition of Aβ42 release [1] [%]
0 |  | O=C(O)C1(c2ccc(-c3ccc(O)cc3)c(F)c2)CC1 [CHF 5070, 1-(2-fluoro-4′-hydroxybiphenyl-4-yl)cyclopropanecarboxylic acid] | 22.4 |  | 
 | 0.0 | O=C(O)C1(c2ccc(-c3ccc(-c4ccc(O)cc4)c(F)c3)c(F)c2)CC1 [CHF 5106, 1-(2,3′-difluoro-4″-hydroxy[1,1′:4′,1″-tert-phenyl]-4-yl)-cyclopropane-carboxylic acid] |  |  | 79.9
0.8 |  | O=C(O)C1(c2ccc(-c3ccc(OC4CCC(C(F)(F)F)CC4)cc3)c(F)c2)CC1 (centres unmarked) [CHF 5096, 1-[2-fluoro-4′-[[4-(trifluoromethyl)cyclohexyl]oxy][1,1′-biphenyl]-4-yl]-cyclopropanecarboxylic acid] | 70 |  | 
5.5 |  | O=C(O)C1(c2ccc(-c3ccc(F)c(Cl)c3)c(F)c2)CC1 [CHF 5076, 1-(3′-chloro-2,4′-difluorobiphenyl-4-yl)cyclopropanecarboxylic acid] | 71.4 |  | 
6.1 |  | O=C1CCC(c2ccc(-c3ccc(C4(C(=O)O)CC4)cc3F)cc2)CC1 [CHF 5081, 1-[2-fluoro-4′-(4-oxo-cyclohexyl)-biphenyl-4-yl]-cyclopropanecarboxylic acid] | 52.3 |  | 
 | 1.1 | O=C(O)C1(c2ccc(-c3ccc(-c4ccc(O)cc4)cc3F)c(F)c2)CC1 [CHF 5107, 1-(2,2′-difluoro-4″-hydroxy[1,1′:4′,1″-tert-phenyl]-4-yl)-cyclopropane-carboxylic acid] |  |  | 83.3
 | 1.9 | O=C(O)C1(c2ccc(-c3ccc(-c4ccc(F)cc4)cc3F)c(F)c2)CC1 [CHF 5105, 1-(2,2′,4″-trifluoro[1,1′:4′,1″-tert-phenyl]-4-yl)-cyclopropanecarboxylic acid] |  |  | 90.7
0.3 |  | O=C(O)C1(c2ccc(-c3ccc(C4CCOCC4)cc3)c(F)c2)CC1 [CHF 5080, 1-[2-fluoro-4′-(tetrahydropyran-4-yl)-biphenyl-4-yl]-cyclopropanecarboxylic acid] | 51.8 |  | 
0.4 |  | O=C(O)C1(c2ccc(-c3ccc(OC4CCOCC4)cc3)c(F)c2)CC1 [CHF 5071, 1-[2-fluoro-4′-(tetrahydropyran-4-yloxy)biphenyl-4-yl]-cyclopropane-carboxylic acid] | 28.1 |  | 
4.8 |  | O=C(O)C1(c2ccc(-c3ccc(F)c(F)c3)c(F)c2)CC1 [CHF 5073, 1-(2,3′,4′-trifluorobiphenyl-4-yl)cyclopropanecarboxylic acid] | 67.4 |  | 
0.5 |  | O=C(O)C1(c2ccc(-c3ccc(Cl)c(Cl)c3)c(F)c2)CC1 [CHF 5074, 1-(3′,4′-dichloro-2-fluorobiphenyl-4-yl)cyclopropanecarboxylic acid] | 79.2 |  | 

Source: US8314268B2, “1-phenylalkanecarboxylic acid derivatives for the treatment of neurodegenerative diseases” (Chiesi Farmaceutici S.p.A., priority 2003, dated 2012)
